In patent US20260191849A1, “PHARMACEUTICAL COMPOSITION FOR TREATMENT OF CANCER” (WIGEN BIOMEDICINE TECHNOLOGY (SHANGHAI) CO., LTD., priority 2022, published 2026):
Read-outs that look alike come from different tables or passages of the source. Blank lines part the entries; values can stand above or below the molecule they belong to.

Experiments:
HCT116 cells [1] = assay: Combined use of compound 257 with PLK1 inhibitor on HCT116 cell viability, 72 h (Biological Example 6); assay type: cell-based
Description: (§1) HCT116 cells were seeded on a 384-well plate at 3000 cells/well. After overnight adherence culture, DMSO or compound 257 serially diluted in a 1:5 ratio from 5 μM and a PLK1 inhibitor with a specified concentration were added. The cell viability was assessed 72 h after dosing by measuring the intracellular ATP content. The inhibition percentages of viable cells by the compounds were calculated by comparing with the DMSO group, and the IC50 values were also calculated.

HCT116 cells [2] = assay: Combined use of compound 257 with Aurora B inhibitor on HCT116 cell viability, 72 h (Biological Example 12); assay type: cell-based
Description: as §1, with “an Aurora B” for “a PLK1”

HT29 cells [3] = assay: Combined use of compound 257 with PLK1 inhibitor (CYC140, TAK-960) on HT29 cell viability, 168 h (Biological Example 9); assay type: cell-based; settings: for Maximum inhibition rate / Minimum inhibition rate / IC50 / inhibition: HT29 cells; for IC50 / inhibition: Homo sapiens, HT-29, 168 h
Description: as §1, with “HT29” for “HCT116”, “400 nM” for “5 μM”, “168” for “72”

HT29 cells [4] = assay: Combined use of compound 257 with PLK1 inhibitor on HT29 cell viability, 72 h (Biological Example 5); assay type: cell-based; settings: for IC50: Homo sapiens, HT-29, 72 h, HT29 cells
Description: as §1, with “HT29” for “HCT116”

[5] = test system: HT29 subcutaneous xenograft tumors; assay: In vivo pharmacodynamic study, HT29 subcutaneous xenograft tumor model of mice (Biological Example 3); design: species or system BALB/c nude mice; settings: 80 mg/kg intragastric once daily, day 28
Description: BALB/c nude mice were each inoculated subcutaneously with 5×10^6 HT29 cells on the left dorsal side. After the tumors grew to 100-150 mm^3, the mice were randomly divided into the following groups for intragastric administration once daily: group 1: vehicle control group; group 2: compound 661 (80 mg/kg); group 3: compound 669 (80 mg/kg); group 4: compound 677 (80 mg/kg); group 5: compound 714 (80 mg/kg); group 6: compound 727 (80 mg/kg); group 7: compound 740 (80 mg/kg); and group 8: AMG65 (80 mg/kg). The tumor volume was measured twice weekly and at the end of administration. […].

[6] = test system: HT29 subcutaneous xenograft tumors; assay: In vivo pharmacodynamic study of combination therapy, HT29 subcutaneous xenograft tumor model of mice (Biological Example 14); design: species or system BALB/c nude mice
Description: BALB/c nude mice were each inoculated subcutaneously with 5×10^6 HT29 cells on the left dorsal side. After the tumors grew to 100-150 mm^3, the mice were randomly divided into the following groups for intragastric administration once daily for 14 consecutive days: group 1: vehicle control group; group 2: AMG650 (50 mpk, PO, QD); group 3: compound 714 (50 mpk, PO, QD); group 4: AMG650 (50 mpk, PO, QD)+Onvasertib (20 mpk, PO, QD); group 5: compound 714 (50 mpk, PO, QD)+Onvasertib (20 mpk, PO, QD); and group 6: Onvasertib (20 mpk, PO, QD). The administration to all the groups was stopped on day 15, and the tumor growth continued to be observed until day 21. The tumor volume was measured twice weekly and at the end of administration. […]

[7] = PO QD 14 days, AMG650/714 50 mpk, Onvasertib 20 mpk, day 15
[8] = PO QD 14 days, AMG650/714 50 mpk, Onvasertib 20 mpk, day 21, after stop of administration

IC50 (HCT116 cells [1]; HCT116 cells, Volasertib 10 nM): > 10000 nM
IC50 (HCT116 cells [1]; HCT116 cells, Volasertib 50 nM): > 10000 nM
IC50 (HCT116 cells [1]; Homo sapiens, HCT-116, HCT116 cells, Volasertib 0 nM): > 10000 nM
IC50 (HCT116 cells [2]; HCT116 cells, Barasertib 0 nM): > 10000 nM
IC50 (HCT116 cells [2]; HCT116 cells, Barasertib 10 nM): > 10000 nM
IC50 (HCT116 cells [2]; HCT116 cells, Barasertib 100 nM): > 10000 nM
IC50 (HCT116 cells [2]; Homo sapiens, HCT-116, HCT116 cells, Barasertib 1000 nM): > 10000 nM
IC50 (HT29 cells [3]; CYC140 (Plogosertib) 0 nM): 15.7 nM
IC50 (HT29 cells [3]; CYC140 (Plogosertib) 1.6 nM): 10.4 nM
IC50 (HT29 cells [3]; CYC140 (Plogosertib) 8 nM): 3.1 nM
IC50 (HT29 cells [3]; TAK-960 0 nM): 14 nM
IC50 (HT29 cells [3]; TAK-960 8 nM): 13.1 nM
IC50 (HT29 cells [3]; TAK-960 40 nM): 2.4 nM
IC50 (HT29 cells [4]; BI 2536 0 nM): 13.5 nM
IC50 (HT29 cells [4]; BI 2536 1.25 nM): 9.9 nM
IC50 (HT29 cells [4]; BI 2536 2.5 nM): 6.2 nM
IC50 (HT29 cells [4]; BI 2536 5 nM): 2 nM
IC50 (HT29 cells [4]; BI 2536 10 nM): 0.6 nM
IC50 (HT29 cells [4]; GSK461364 0 nM): 13.5 nM
IC50 (HT29 cells [4]; GSK461364 1.25 nM): 14.3 nM
IC50 (HT29 cells [4]; GSK461364 2.5 nM): 8.8 nM
IC50 (HT29 cells [4]; GSK461364 5 nM): 3.3 nM
IC50 (HT29 cells [4]; GSK461364 10 nM): 0.5 nM
IC50 (HT29 cells [4]; MLN0905 0 nM): 13.1 nM
IC50 (HT29 cells [4]; MLN0905 12.5 nM): 4.7 nM
IC50 (HT29 cells [4]; MLN0905 25 nM): 0.5 nM
IC50 (HT29 cells [4]; Onvansertib 0 nM): 12.7 nM
IC50 (HT29 cells [4]; Onvansertib 12.5 nM): 5.2 nM
IC50 (HT29 cells [4]; Onvansertib 25 nM): 0.8 nM
IC50 (HT29 cells [4]; Rigosertib 0 nM): 14.5 nM
IC50 (HT29 cells [4]; Rigosertib 12.5 nM): 12.2 nM
IC50 (HT29 cells [4]; Rigosertib 25 nM): 15.2 nM
IC50 (HT29 cells [4]; Rigosertib 50 nM): 9.1 nM
IC50 (HT29 cells [4]; Rigosertib 100 nM): 0.4 nM
IC50 (HT29 cells [4]; Ro3280 0 nM): 13.6 nM
IC50 (HT29 cells [4]; Ro3280 12.5 nM): 2.9 nM
IC50 (HT29 cells [4]; Ro3280 25 nM): 0.4 nM
IC50 (HT29 cells [4]; Volasertib 0 nM): 13.1 nM
IC50 (HT29 cells [4]; Volasertib 12.5 nM): 1.1 nM
IC50 (HT29 cells [4]; Volasertib 25 nM): 0.7 nM
Compound: COc1ccc(NC(=O)c2ccc(NS(=O)(=O)CCO)cc2N2CCC3(CC2)CC3)nc1N1CCC(F)(F)CC1 [Compound 257]
anti-proliferative activity against HCT116 cells, monotherapy (HCT116 cells [1]; in words): did not exhibit anti-proliferative activity
synergistic effect on HCT116 cell viability, combined use with the PLK1 inhibitor (HCT116 cells [1]; in words): no significant synergistic effect
anti-proliferative activity against HCT116 cells, monotherapy (HCT116 cells [2]; in words): did not exhibit anti-proliferative activity
synergistic effect on HCT116 cell viability, combined use with the Aurora B inhibitor (HCT116 cells [2]; in words): no significant synergistic effect
inhibitory effect on HT-29 cells, combined use with the PLK1 inhibitor compared with monotherapy (HT29 cells [3]; CYC140 or TAK-960, in words): stronger inhibitory effect
Maximum inhibition rate (HT29 cells [3]; CYC140 (Plogosertib) 0 nM): 44.2%
Minimum inhibition rate (HT29 cells [3]; CYC140 (Plogosertib) 0 nM): -7.1%
Maximum inhibition rate (HT29 cells [3]; TAK-960 0 nM): 57.1%
Minimum inhibition rate (HT29 cells [3]; TAK-960 0 nM): 1.5%
inhibition (HT29 cells [3]; CYC140 (Plogosertib) 1.6 nM, read-out: Maximum inhibition rate): 80.3%
inhibition (HT29 cells [3]; CYC140 (Plogosertib) 1.6 nM, read-out: Minimum inhibition rate): -0.7%
inhibition (HT29 cells [3]; CYC140 (Plogosertib) 8 nM, read-out: Maximum inhibition rate): 90.9%
inhibition (HT29 cells [3]; CYC140 (Plogosertib) 8 nM, read-out: Minimum inhibition rate): 0.4%
inhibition (HT29 cells [3]; TAK-960 8 nM, read-out: Maximum inhibition rate): 86.1%
inhibition (HT29 cells [3]; TAK-960 8 nM, read-out: Minimum inhibition rate): 7.5%
inhibition (HT29 cells [3]; TAK-960 40 nM, read-out: Maximum inhibition rate): 93.6%
inhibition (HT29 cells [3]; TAK-960 40 nM, read-out: Minimum inhibition rate): -4%
inhibitory effect on HT-29 cells, combined use with the PLK1 inhibitor compared with monotherapy (HT29 cells [4]; in words): stronger inhibitory effect

Compound: Cc1cc(NC(=O)c2ccc(NS(=O)(=O)CCO)cc2N2CCC3(CC2)CC3)nc(N2CCC(F)(F)CC2)n1 [AMG650]
TGI [5]: 64%
Tumor volume on day 1 of administration ([6]; PO QD 14 days, AMG650/714 50 mpk, Onvasertib 20 mpk, day 1 (baseline)): 132 mm^3
TGI on day 15 [6, 7]: 115%
Tumor volume on day 15 of administration [6, 7]: 49 mm^3
TGI on day 21 [6, 8]: 100%
Tumor volume on day 21 of administration [6, 8]: 126 mm^3
tumor inhibitory effect, combined use with the PLK1 inhibitor Onvasertib compared with monotherapy ([6]; combined with Onvasertib, in words): stronger tumor inhibitory effect
therapeutic efficacy of monotherapy in HT29-bearing mice ([6]; monotherapy, in words): able to inhibit tumor growth
